From PMC13017400, “ENPP1 inhibition as a therapeutic approach for later-onset hypophosphatasia” (Journal of Bone and Mineral Research, 2025)

Biological target: T1, ENPP1 (ectonucleotide pyrophosphatase/phosphodiesterase 1) (Mus musculus, UniProt P06802)
T1 sequence (P06802 1-906): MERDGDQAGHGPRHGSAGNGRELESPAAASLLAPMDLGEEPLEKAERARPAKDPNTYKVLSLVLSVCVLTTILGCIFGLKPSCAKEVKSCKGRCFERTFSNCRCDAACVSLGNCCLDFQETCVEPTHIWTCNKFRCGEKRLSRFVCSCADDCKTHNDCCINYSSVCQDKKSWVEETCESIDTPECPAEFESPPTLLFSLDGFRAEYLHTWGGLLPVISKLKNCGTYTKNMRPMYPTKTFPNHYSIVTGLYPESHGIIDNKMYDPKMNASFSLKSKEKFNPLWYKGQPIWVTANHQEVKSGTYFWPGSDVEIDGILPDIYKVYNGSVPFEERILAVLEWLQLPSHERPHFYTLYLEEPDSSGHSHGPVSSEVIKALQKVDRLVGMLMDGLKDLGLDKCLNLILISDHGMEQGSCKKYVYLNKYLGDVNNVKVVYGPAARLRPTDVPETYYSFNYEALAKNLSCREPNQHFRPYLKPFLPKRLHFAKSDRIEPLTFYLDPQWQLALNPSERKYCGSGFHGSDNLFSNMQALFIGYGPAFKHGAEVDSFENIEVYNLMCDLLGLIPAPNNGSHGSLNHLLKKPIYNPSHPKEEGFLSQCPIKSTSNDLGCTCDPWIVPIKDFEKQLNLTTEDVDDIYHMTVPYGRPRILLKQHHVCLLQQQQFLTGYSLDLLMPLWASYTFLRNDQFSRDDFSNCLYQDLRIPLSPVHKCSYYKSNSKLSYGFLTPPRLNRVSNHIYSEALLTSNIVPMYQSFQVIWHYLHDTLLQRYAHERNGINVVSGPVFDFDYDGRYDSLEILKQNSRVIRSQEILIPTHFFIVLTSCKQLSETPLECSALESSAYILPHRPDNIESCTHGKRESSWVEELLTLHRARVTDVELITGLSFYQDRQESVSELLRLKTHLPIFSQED
Assay: Transcreener AMP/GMP TR-FRET enzymatic assay, […] mouse ENPP1 protein, […] ATP
Assay type: biochemical

Substance: REV102
- IC50: 6.3 nM
